Source: patent EP0243717A1 (priority 1986, dated 1987)
Values after ≈ are worked out from the molar mass of the structure shown. Values joined by “and” are separate entries in the source; they are usually repeats but may differ in a detail not shown here. Identical values can stand only once. Like-named read-outs stand apart in the source and are kept apart here.

Legend:
[1] = system: piricularia oryzae KF 180; test: microbe, parasite or virus in culture; assay type: cell-based
[2] = system: Peptococcus variabilis KB 235 (ATCC 14955); assay type: cell-based; details: Medium B
Text: (§1) For reference, the minimum growth inhibition concentrations (MIC) to various bacteria of above five drugs and Lankacidin C are shown in Table 3.

[3] = system: Bcteroides fragilis KB 169 (ATCC 23745); assay type: cell-based; details: Medium B
Text: as §1

[4] = system: Clostridium perfringens KB 129 (ATCC 3624); test: microbe, parasite or virus in culture; assay type: cell-based
Xanthomonas oryzae KB 88 = test: microbe, parasite or virus in culture; assay type: cell-based
Treponema hyodysenteriae [5] = assay type: in vivo, pigs
T. hyo = test: Example 7: induced swine dysentery trial, drug in feed; assay type: in vivo, pigs; details: for No. Pig Days with General Appearance Score of: 1 / No. Pig Days with Hydration Score of: 1: 1 = Normal; for No. Pig Days with General Appearance Score of: 2: 2 = Depressed; for No. Pig Days with Hydration Score of: 2: 2 = mild; for No. Pig Days with General Appearance Score of: 3: 3 = Moribund; for No. Pig Days with Hydration Score of: 3: 3 = moderate; for No. Pig Days with General Appearance Score of: 4: 4 = Dead; for No. Pig Days with Hydration Score of: 4: 4 = severe
Experimental: The test is conducted using 40 crossbred pigs approximately 6 weeks of age, weighing 12.8 kg at receipt. Pigs are assigned to one of the treatments outlined in the Table below, stratified by body weight and sex, and randomly assigned to pens within a randomized block design. Sexes intermixed within pens and proportioned among treatment groups. Treatments groups are randomly assigned to pens within experimental blocks to alleviate location variables (see Table 9). Each treatment group consists of two replicate pens with five pigs per pen.
All pigs are adjusted to the test facility for four days prior to their challenge with 100 ml of T. hvodvsenteriae (T. hvo) broth culture. Respective treatment diets are provided 1 hr postchallenge and continued ad libitum for three weeks followed by a two week nonmedicated period. Clinical signs are noted and recorded for each pig each day postchallenge.
Pigs are challenged on day 5 and then provided respective treatment diets immediately postchallenge for a 21-day period followed by a 14-day nonmedication period.
Pigs are challenged on day 5 and then provided respective treatment diets immediately postchallenge for a 21-day period followed by a 14-day nonmedicated period.

Treponema hyodysenteriae [6] = assay type: in vivo, pigs; remark: listed apart in the source
[7] = Clostridium perfringens, ATCC3624
[8] = […], 0 normal, 1 diarrhea, 2 feces cruentae
[9] = Treatment A, 20 g/ton hygromycin A, Total
[10] = Treatment A, 20 g/ton hygromycin A, per pen (1, 4)
[11] = Treatment B, 10 g/ton hygromycin A, Total
[12] = Treatment B, 10 g/ton hygromycin A, per pen (5, 8)
[13] = Treatment C, 50 g/ton hygromycin A, Total
[14] = Treatment C, 50 g/ton hygromycin A, per pen (2, 7)
[15] = Group III, 5 additional healthy pigs penned with the treated pigs
[16] = Group III, second line of 5 pigs (additional healthy pigs)
[17] = Treatment C, 50 g/ton Carbadox, Total
[18] = Treatment C, 50 g/ton Carbadox, per pen (2, 7)

## CCC[C@@H]1C[C@@H](C(=O)N[C@@H]([C@H]2O[C@H](SC)[C@H](O)[C@@H](O)[C@H]2O)[C@@H](C)O)N(C)C1 [Lincomycin]
[1]
  MIC: > 100 µg/mL
[2]; read-out: MIC
  MIC: 0.78 µg/mL (≈ 1.92 µM)
[3]; read-out: MIC
  MIC: 0.4 µg/mL (≈ 0.984 µM)
[4]; [7]
  MIC: 0.4 µg/mL (≈ 0.984 µM)
Xanthomonas oryzae KB 88; Xanthomonas oryzae, KB88
  MIC: > 100 µg/mL

## CC(=O)[C@H]1O[C@@H](Oc2ccc(/C=C(\C)C(=O)N[C@@H]3[C@H](O)[C@@H](O)[C@H]4OCO[C@H]4[C@@H]3O)cc2O)[C@@H](O)[C@@H]1O [Hygromycin A, hygromycin A]
Treponema hyodysenteriae [5]; Group III, hygromycin A 0.5mg/liter drinking water, rectal swabs
  Pathogen Detection Rate (%) During medication days 31 to 120: 0/12
Treponema hyodysenteriae [5]; Group III: infected, hygromycin A 0.5mg/liter drinking water
  Mortality: 0
Treponema hyodysenteriae [5]; Group III, after end of medication, rectal swabs
  Pathogen Detection Rate (%) Withdrawal days 31 to 120: 0/12
Treponema hyodysenteriae [5]; Group III, rectal swabs
  Pathogen Detection Rate (%) Post infecting days 1 to 3 Before medication: 10/12
  Pathogen Detection Rate (%) Prein-fecting: 0%
Treponema hyodysenteriae [5]; [8]
  Average diarrhea index During medication: 0.22
  Average diarrhea index Pre-medication: 0
Treponema hyodysenteriae [5]; […], necropsy after the experiment
  Gross pathological examination of the colon: normal
Treponema hyodysenteriae [5]; pig, in vivo
  Change in morbidity (%) Third day: 0%
  Change in morbidity (%) Thirtieth day: 0%
[1]
  MIC: >100 µg/mL
T. hyo; [9]
  No. Pig Days with General Appearance Score of: 1: 349 pig days
  No. Pig Days with General Appearance Score of: 2: 1 pig days
  No. Pig Days with Hydration Score of: 2: 0 pig days
  No. Pig Days with General Appearance Score of: 3: 0 pig days
  No. Pig Days with Hydration Score of: 3: 0 pig days
  No. Pig Days with General Appearance Score of: 4: 0 pig days
  No. Pig Days with Hydration Score of: 4: 0 pig days
T. hyo; [10]
  No. Pig Days with General Appearance Score of: 1: 174 pig days and 175 pig days
  No. Pig Days with Hydration Score of: 2: 0 pig days
  No. Pig Days with General Appearance Score of: 3: 0 pig days
  No. Pig Days with Hydration Score of: 3: 0 pig days
  No. Pig Days with General Appearance Score of: 4: 0 pig days
  No. Pig Days with Hydration Score of: 4: 0 pig days
T. hyo; Treatment A, 20 g/ton, Total
  No. Pig Days with Hydration Score of: 1: 350 pig days
T. hyo; Treatment A, 20 g/ton, per pen (1, 4)
  No. Pig Days with Hydration Score of: 1: 175 pig days
T. hyo; [11]
  No. Pig Days with General Appearance Score of: 1: 349 pig days
  No. Pig Days with General Appearance Score of: 2: 1 pig days
  No. Pig Days with Hydration Score of: 2: 4 pig days
  No. Pig Days with General Appearance Score of: 3: 0 pig days
  No. Pig Days with Hydration Score of: 3: 0 pig days
  No. Pig Days with General Appearance Score of: 4: 0 pig days
  No. Pig Days with Hydration Score of: 4: 0 pig days
T. hyo; [12]
  No. Pig Days with General Appearance Score of: 1: 175 pig days and 174 pig days
  No. Pig Days with Hydration Score of: 2: 2 pig days
  No. Pig Days with General Appearance Score of: 3: 0 pig days
  No. Pig Days with Hydration Score of: 3: 0 pig days
  No. Pig Days with General Appearance Score of: 4: 0 pig days
  No. Pig Days with Hydration Score of: 4: 0 pig days
T. hyo; Treatment B, 10 g/ton, Total
  No. Pig Days with Hydration Score of: 1: 346 pig days
T. hyo; Treatment B, 10 g/ton, per pen (5, 8)
  No. Pig Days with Hydration Score of: 1: 173 pig days
T. hyo; [13]
  No. Pig Days with Hydration Score of: 2: 3 pig days
  No. Pig Days with Hydration Score of: 3: 0 pig days
  No. Pig Days with Hydration Score of: 4: 0 pig days
T. hyo; [14]
  No. Pig Days with Hydration Score of: 2: 2 pig days and 1 pig days
  No. Pig Days with Hydration Score of: 3: 0 pig days
  No. Pig Days with Hydration Score of: 4: 0 pig days
T. hyo; Treatment C, printed 50 g/ton, Total
  No. Pig Days with Hydration Score of: 1: 347 pig days
T. hyo; Treatment C, printed 50 g/ton, per pen (2, 7), row
  No. Pig Days with Hydration Score of: 1: 173 pig days and 174 pig days
[3]
  MIC: 50 µg/mL (≈ 97.8 µM)
[4]; Medium B
  MIC: 6.25 µg/mL (≈ 12.2 µM)
Xanthomonas oryzae KB 88; Medium E
  MIC: 50 µg/mL (≈ 97.8 µM)
Treponema hyodysenteriae [6]; [15]
  Average diarrhea index During observation: 0
  Change in morbidity ( %) Commencement of observation: 0%
  Change in morbidity ( %) During observation: 0%
  Mortality (%): 0%
Treponema hyodysenteriae [6]; Group III, 5 infected treated pigs
  Mortality (%): 0%
Treponema hyodysenteriae [6]; [16]
  Pathogen Detection Rate (%) Commencement of observation: 0%
  Pathogen Detection Rate (%) During observation: 0%
Treponema hyodysenteriae [6]; Group III, during the observation period
  attack of the disease in infected pigs or healthy pigs: no attack of the disease is observed
Treponema hyodysenteriae [6]; Group III, during the therapeutic period and at the starting time of observation
  swine dysentery symptoms of infected pigs: no swine dysentery symptoms
Treponema hyodysenteriae [6]; [8]
  Average diarrhea index pre-medication: 0
Treponema hyodysenteriae [6]; pig, in vivo
  Average diarrhea index During medication: 0
  Average diarrhea index During observation: 0
  Change in morbidity ( %) Commencement of observation: 0%
  Change in morbidity ( %) During medication: 0/5
  Change in morbidity ( %) During observation: 0%
  Pathogen Detection Rate (%) Commencement of observation: 0%
  Pathogen Detection Rate (%) During medication: 0%
  Pathogen Detection Rate (%) During observation: 0%
  Pathogen Detection Rate (%) pre-infection: 0%

## CC(=O)C(=O)N[C@@H]1/C=C(C)/C=C/[C@@H](O)C/C=C(C)/C=C/[C@@H](O)C[C@H]2OC(=O)[C@]1(C)C(=O)[C@@H]2C [Lankacidin C]
[1]
  MIC: >100 µg/mL
[2]
  MIC: 0.4 µg/mL (≈ 0.87 µM)
[3]
  MIC: 0.78 µg/mL (≈ 1.7 µM)
[4]; Medium B
  MIC: 3.12 µg/mL (≈ 6.79 µM)
Xanthomonas oryzae KB 88; Medium E
  MIC: < 3.12 µg/mL

## C=C[C@]1(C)C[C@@H](OC(=O)CSCCN(CC)CC)[C@]2(C)[C@H](C)CC[C@]3(CCC(=O)[C@H]32)[C@@H](C)[C@@H]1O [Dynamutilin, tiamulin]
[1]
  MIC: > 100 µg/mL
[2]; read-out: MIC
  MIC: 0.4 µg/mL (≈ 0.81 µM)
[3]; read-out: MIC
  MIC: < 0.2 µg/mL
[4]; [7]
  MIC: 0.78 µg/mL (≈ 1.58 µM)
Xanthomonas oryzae KB 88; Xanthomonas oryzae, KB88
  MIC: < 3.12 µg/mL

## COC(=O)N/N=C/c1c[n+]([O-])c2ccccc2[n+]1[O-] [Carbadox, carbadox, reference compound]
T. hyo; [17]
  No. Pig Days with General Appearance Score of: 1: 349 pig days
  No. Pig Days with General Appearance Score of: 2: 1 pig days
  No. Pig Days with General Appearance Score of: 3: 0 pig days
  No. Pig Days with General Appearance Score of: 4: 0 pig days
T. hyo; [18]
  No. Pig Days with General Appearance Score of: 1: 174 pig days and 175 pig days
  No. Pig Days with General Appearance Score of: 3: 0 pig days
  No. Pig Days with General Appearance Score of: 4: 0 pig days
